Data on two molecules can be found in patent publication US6359142B1 (priority 1998, dated 2002).

A short description of series [1]: log p.
Series [2] concerns Phytophthora infestans. It is filed as in vivo. To be noted: tomato, protective, application rate 50 g/ha, evaluation 3 days after inoculation; 0% = control, 100% = no infection.

The structures appear in SMILES notation.

On to `CCc1[nH]c(=O)oc1C#N` [5-cycano-4-ethyl-3H-[1,3]-oxazol-2-one], for which the logP in series [1] is reported as 0.88.
For the molecule `CCc1c(C#N)oc(=O)n1S(=O)(=O)c1c(C)noc1C` [Example 1, 5-cyano4-ethyl-3-(3,5-dimethyl-isoxazole-4-sulphonyl)-3H-[1,3]-oxazol-2-one], the melting point fell in the range of 117 to 122 °C. The molecule also came in with an Efficacy in % in series [2] of 94%. Further, the logP in series [1] was determined as 2.87.

For orientation: logP means a log measure of how a compound divides between an organic and an aqueous phase. A lower logP goes with lower lipophilicity. A word on the melting point: it is the temperature, or range, at which the solid turns liquid.
